Data from patent publication US20250171450A1, “NOVEL COELENTERAZINE DERIVATIVES” (National Institute of Advanced Industrial Science and …, priority 2022, published 2025).

Experiments:
ALuc16 = assay: Evaluation of luminescence brightness, ALuc16 expressed in COS-7 cells (live cells and lysates); type: cell-based, luminescent plankton; details: COS-7 live cells and lysates (FIGS. 1, 2); 100 μM diluted luminescent substrate solution
Procedure: (§1) For luminescence measurements, the IVIS Imaging System purchased from PerkinElmer (old name: Caliper Life Sciences) was used.
(§2) As live cells expressing luminescent enzymes, COS-7 cells derived from the kidney of an African green monkey were used, and the evaluations were also conducted with the lysates produced by the lysis of these live cells.
(§3) The COS-7 cells derived from the kidney of the African green monkey were seeded in a 6-well microplate and were cultured in a CO2 incubator until 70% of the bottom area was covered by the cells. Using TransIT-LT1 reagent (Mirus), the plasmid encoding each of the following marine bioluminescent enzymes was transiently expressed in cells in each well.
(§4) After this lipofection, the cells were cultured in a CO2 incubator for one day. The cells were then subcultured into a 96-well microplate and further incubated for one day.
(§5) The wells with cells transfected with the same plasmid were conceptually divided into two, where one was used for lysate experiments and the other for live cell experiments. For the lysate, first, the cell medium was removed from the 96-well microplate, and then 40 μL of cell lysis reagent (lysate) available from Promega K. K. was injected into each well and the plate was incubated for 15 minutes. For the live cell experiments, after the cell medium was completely removed, the microplate was immediately sealed to prevent the sample evaporation until the luminescence measurements.
(§6) Each luminescent substrate was first dissolved in methanol (PEG400, 25%) to 5 mM (stock solution), which was further diluted with phosphate-buffered saline (PBS) to 100 μM (this solution is hereinafter referred to as diluted luminescent substrate solution). This “diluted luminescent substrate solution” was dispensed in advance into each empty well of a 96-well microplate. […] The bioluminescence brightness from the 96-well black frame microplate was measured, and analyzed using the dedicated software Living Image ver. […]

ALuc47 = assay: Evaluation of luminescence brightness, ALuc47 expressed in COS-7 cells (live cells and lysates); type: cell-based, luminescent plankton; details: 100 μM diluted luminescent substrate solution
Procedure: as §1, §2, §3, §4, §5, §6

[1] = system: Renilla luciferase 8.6-535SG (RLuc8.6SG); assay: Evaluation of luminescence brightness, RLuc8.6SG expressed in COS-7 cells (live cells and lysates); type: cell-based, Renilla reniformis; details: COS-7 live cells and lysates (FIGS. 7, 8); 100 μM diluted luminescent substrate solution
Procedure: as §1, §2, §3, §4, §5, §6

NanoLuc [2] = target: T1, NanoLuc (Oplophorus gracilirostris, UniProt Q9GV45, A31E/A60N/A81I/F95D/I117V/K70R/L54V/L99Q/M102K/N193R/P142E/Q151K/Q38R/Q45L/V71I/Y165I); assay: Evaluation of luminescence brightness, NanoLuc expressed in COS-7 cells (live cells and lysates); type: cell-based; details: COS-7 live cells and lysates (FIGS. 10, 11); 100 μM diluted luminescent substrate solution
T1 construct: host or cells: COS-7
Procedure: as §1, §2, §3, §4, §5, §6

[3] = system: ALuc16, ALuc47, RLuc8.6SG, NanoLuc; assay: Enzyme specificity from luminescence brightness across the luminescent enzymes; type: cell-based; details: comparison of luminescence among ALuc16, ALuc47, RLuc8.6SG
Procedure: as §1, §2, §3, §4
The wells with cells transfected with the same plasmid were conceptually divided into two, where one was used for lysate experiments and the other for live cell experiments. […] For the live cell experiments, after the cell medium was completely removed, the microplate was immediately sealed to prevent the sample evaporation until the luminescence measurements. […]

NanoLuc [4] = target: T1, NanoLuc; assay: Evaluation of bioluminescence spectrum, NanoLuc lysate; type: biochemical; details: COS-7 lysate (FIG. 12)
Procedure: Measurements were conducted using the luminescence spectrum device AB-1850 available from ATTO Corporation.
The measured spectra were obtained with a measurement parameter-tuned detector.
The COS-7 cells were seeded in a 6-well microplate and were cultured in a CO2 incubator until 70% of the bottom area was covered by the cells. Using TransIT-LT1 reagent (Mirus), the plasmid encoding each of the following marine bioluminescent enzymes was transiently expressed in cells in each well.
After this lipofection, the cells were cultured in a CO2 incubator for one day. After the cell medium was completely removed from the 6-well microplate, 200 μL of cell lysis reagent (lysate) available from Promega K. K. was added to each well and the microplate was incubated at room temperature for 15 minutes.
Twenty microliters of this lysate were dispensed into each PCR tube, and 20 μL of the 100 μM diluted luminescent substrate solution was added at the time of luminescence brightness evaluation. The PCR tubes were immediately placed in a spectrophotometer (AB-1850, ATTO Corporation), and the bioluminescence spectrum was measured in the high-sensitivity mode with integration modes of 0.5 seconds, 5 seconds, 10 seconds, and 30 seconds. […]

[5] = COS-7 live cells and lysates (FIGS. 4, 5)

T1 sequence (Q9GV45 28-196 with tags or gaps with the stated changes limits assumed): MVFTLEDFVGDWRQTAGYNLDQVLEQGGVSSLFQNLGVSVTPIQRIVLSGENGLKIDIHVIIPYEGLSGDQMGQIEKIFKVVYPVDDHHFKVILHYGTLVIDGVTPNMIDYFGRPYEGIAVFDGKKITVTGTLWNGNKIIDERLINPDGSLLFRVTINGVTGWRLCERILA

Compound	luminescence for ALuc16 (ALuc16)	luminescence for ALuc47 (ALuc47; [5])	luminescence for RLuc8.6SG [1]	luminescence for NanoLuc (NanoLuc [2])	enzyme specificity [3]	luminescence spectral peak for NanoLuc (NanoLuc [4]) [nm]	luminescence for ALuc47 (ALuc47; COS-7 live cells (FIG. 4 only cited))
O=c1c(Cc2ccc(O)cc2)nc2c(Cc3ccccc3)[nH]c(-c3ccc4c(c3)OCCO4)cn1-2 [structural formula (1-1)]	high luminescence at high brightness	slight luminescence	slight luminescence	no luminescence activity	enzyme specificity for ALuc16	–	–
O=c1c(Cc2ccc(O)cc2)nc2c(Sc3ccccc3)[nH]c(-c3ccc(O)cc3)cn1-2 [structural formula (2-1)]	luminescence activity	also showed luminescence	luminescence activity	luminescence activity	–	507	–
O=c1c(Cc2ccc(O)cc2)nc2c(Sc3ccc(F)cc3)[nH]c(-c3ccc(O)cc3)cn1-2 [structural formula (2-2)]	luminescence activity	–	luminescence activity	slight luminescence	–	–	slight luminescence
